Data taken from US20170253562A1, “Nampt Inhibitors” (AbbVie Inc., priority 2011, published 2017).

Target: recombinant, human, C-terminally-His tagged NAMPT (Homo sapiens, UniProt P43490)
Test: Time-Resolved Fluorescence Resonance Energy Transfer (TR-FRET) binding assay of NAMPT
Conditions: 6.8 nM NAMPT, 200 nM probe (Oregon Green 488-conjugated APO866), 2-3 hours
Experimental: Time-Resolved Fluorescence Resonance Energy Transfer (TR-FRET) Binding Assay of NAMPT
Plates were read with Envision (Laser Lantha low volume protocol) after 2 to 3 hours.

recombinant, human, C-terminally-His tagged NAMPT, sequence (P43490 whole entry): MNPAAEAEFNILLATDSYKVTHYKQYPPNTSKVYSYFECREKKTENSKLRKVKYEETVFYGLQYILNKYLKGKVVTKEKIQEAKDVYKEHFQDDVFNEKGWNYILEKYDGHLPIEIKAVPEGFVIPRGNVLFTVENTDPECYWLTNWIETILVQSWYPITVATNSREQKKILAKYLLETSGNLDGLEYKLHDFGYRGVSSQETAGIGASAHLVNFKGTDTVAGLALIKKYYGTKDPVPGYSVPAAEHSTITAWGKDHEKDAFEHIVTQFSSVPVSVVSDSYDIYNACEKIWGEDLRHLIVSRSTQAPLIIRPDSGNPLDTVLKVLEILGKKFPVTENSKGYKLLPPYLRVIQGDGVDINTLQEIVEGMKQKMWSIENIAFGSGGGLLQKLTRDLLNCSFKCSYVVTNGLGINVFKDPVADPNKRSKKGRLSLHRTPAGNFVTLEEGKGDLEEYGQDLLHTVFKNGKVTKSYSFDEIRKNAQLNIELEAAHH

Row | Compound | IC50 [nM]
1 | O=C(NCCN1CCCCCC1)c1ccc(NC(=O)N2Cc3ccccc3C2)cc1 [Example 1, N-(4-{[2-(azepan-1-yl)ethyl]carbamoyl}phenyl)-1,3-dihydro-2H-isoindole-2-carboxamide] | 55.6
2 | O=C(NCCN1CCNC1=O)c1ccc(NC(=O)N2Cc3ccccc3C2)cc1 [Example 3, N-(4-{[2-(2-oxoimidazolidin-1-yl)ethyl]carbamoyl}phenyl)-1,3-dihydro-2H-isoindole-2-carboxamide] | 32.6
3 | O=C(NCCC1CCCCO1)c1ccc(NC(=O)N2Cc3ccccc3C2)cc1 (stereo not drawn) [Example 4, N-(4-{[2-(tetrahydro-2H-pyran-2-yl)ethyl]carbamoyl}phenyl)-1,3-dihydro-2H-isoindole-2-carboxamide] | 4.08
4 | CC1(CNC(=O)c2ccc(NC(=O)N3Cc4ccccc4C3)cc2)CCCO1 (stereo not drawn) [Example 5, N-(4-{[(2-methyltetrahydrofuran-2-yl)methyl]carbamoyl}phenyl)-1,3-dihydro-2H-isoindole-2-carboxamide] | 6.92
5 | O=C(NCC1COC2(CCNCC2)C1)c1ccc(NC(=O)N2Cc3ccccc3C2)cc1 (stereo not drawn) [Example 7, N-{4-[(1-oxa-8-azaspiro[4.5]dec-3-ylmethyl)carbamoyl]phenyl}-1,3-dihydro-2H-isoindole-2-carboxamide] | 7.39
6 | O=C(Nc1ccc(C(=O)N2CCC3(CC2)COC3)nn1)N1Cc2ccccc2C1 [Example 8, N-[6-(2-oxa-7-azaspiro[3.5]non-7-ylcarbonyl)pyridazin-3-yl]-1,3-dihydro-2H-isoindole-2-carboxamide] | 92.2
7 | O=C(Nc1ccc(C(=O)N2CC3COCC3C2)nn1)N1Cc2ccccc2C1 (stereo not drawn) [Example 9, N-[6-(tetrahydro-1H-furo[3,4-c]pyrrol-5(3H)-ylcarbonyl)pyridazin-3-yl]-1,3-dihydro-2H-isoindole-2-carboxamide] | 442
8 | O=C(Nc1ccc(C(=O)N2CCC3OCCC3C2)nn1)N1Cc2ccccc2C1 (stereo not drawn) [Example 10, N-[6-(hexahydrofuro[3,2-c]pyridin-5(4H)-ylcarbonyl)pyridazin-3-yl]-1,3-dihydro-2H-isoindole-2-carboxamide] | 952
9 | O=C(Nc1ccc(C(=O)N2CC3CCOC3C2)nn1)N1Cc2ccccc2C1 (stereo not drawn) [Example 11, N-[6-(hexahydro-5H-furo[2,3-c]pyrrol-5-ylcarbonyl)pyridazin-3-yl]-1,3-dihydro-2H-isoindole-2-carboxamide] | 270
10 | O=C(Nc1ccc(C(=O)N2CCOC3(CCOC3)C2)nn1)N1Cc2ccccc2C1 (stereo not drawn) [Example 12, N-[6-(2,6-dioxa-9-azaspiro[4.5]dec-9-ylcarbonyl)pyridazin-3-yl]-1,3-dihydro-2H-isoindole-2-carboxamide] | 2050
11 | O=C(Nc1ccc(C(=O)N2CC3(COC3)C2)nn1)N1Cc2ccccc2C1 [Example 13, N-[6-(2-oxa-6-azaspiro[3.3]hept-6-ylcarbonyl)pyridazin-3-yl]-1,3-dihydro-2H-isoindole-2-carboxamide] | 626
12 | O=C(Nc1ccc(C(=O)N2CCCC3(COC3)C2)nn1)N1Cc2ccccc2C1 [Example 14, N-[6-(2-oxa-6-azaspiro[3.5]non-6-ylcarbonyl)pyridazin-3-yl]-1,3-dihydro-2H-isoindole-2-carboxamide] | 885
13 | O=C(Nc1ccc(C(=O)N2CCC3(CCOC3)C2)nn1)N1Cc2ccccc2C1 (stereo not drawn) [Example 15, N-[6-(2-oxa-7-azaspiro[4.4]non-7-ylcarbonyl)pyridazin-3-yl]-1,3-dihydro-2H-isoindole-2-carboxamide] | 578
14 | O=C(Nc1ccc(C(=O)N2CCC3(CNCCC3(F)F)C2)nn1)N1Cc2ccccc2C1 (stereo not drawn) [Example 16, N-{6-[(10,10-difluoro-2,7-diazaspiro[4.5]dec-2-yl)carbonyl]pyridazin-3-yl}-1,3-dihydro-2H-isoindole-2-carboxamide] | 116
15 | N#CC1COC2(CCN(C(=O)c3ccc(NC(=O)N4Cc5ccccc5C4)nn3)CC2)C1 (stereo not drawn) [Example 17, N-{6-[(3-cyano-1-oxa-8-azaspiro[4.5]dec-8-yl)carbonyl]pyridazin-3-yl}-1,3-dihydro-2H-isoindole-2-carboxamide] | 158
16 | O=C(Nc1ccc(C(=O)N2CC3(CCOCC3)C2)nn1)N1Cc2ccccc2C1 [Example 18, N-[6-(7-oxa-2-azaspiro[3.5]non-2-ylcarbonyl)pyridazin-3-yl]-1,3-dihydro-2H-isoindole-2-carboxamide] | 388
17 | O=C(Nc1ccc(C(=O)N2CCC3(CCCO3)C2)nn1)N1Cc2ccccc2C1 (stereo not drawn) [Example 19, N-[6-(1-oxa-7-azaspiro[4.4]non-7-ylcarbonyl)pyridazin-3-yl]-1,3-dihydro-2H-isoindole-2-carboxamide] | 394
18 | O=C(Nc1ccc(C(=O)N2CCC3(CNCCC3F)C2)nn1)N1Cc2ccccc2C1 (stereo not drawn) [Example 20, N-{6-[(10-fluoro-2,7-diazaspiro[4.5]dec-2-yl)carbonyl]pyridazin-3-yl}-1,3-dihydro-2H-isoindole-2-carboxamide] | 406
19 | O=C(Nc1ccc(C(=O)N2CCC3(CCNCC3)CC2)nn1)N1Cc2ccccc2C1 [Example 21, N-[6-(3,9-diazaspiro[5.5]undec-3-ylcarbonyl)pyridazin-3-yl]-1,3-dihydro-2H-isoindole-2-carboxamide] | 101
20 | O=C(Nc1ccc(C(=O)N2CCCC3(CCNC3)C2)nn1)N1Cc2ccccc2C1 (stereo not drawn) [Example 22, N-[6-(2,7-diazaspiro[4.5]dec-7-ylcarbonyl)pyridazin-3-yl]-1,3-dihydro-2H-isoindole-2-carboxamide] | 1270
21 | O=C(Nc1ccc(C(=O)N2CCC3(CCNC3)CC2)nn1)N1Cc2ccccc2C1 [Example 23, N-[6-(2,8-diazaspiro[4.5]dec-8-ylcarbonyl)pyridazin-3-yl]-1,3-dihydro-2H-isoindole-2-carboxamide] | 140
22 | O=C(NC1CCC12CNC2)c1ccc(NC(=O)N2Cc3ccccc3C2)nn1 (stereo not drawn) [Example 25, N-[6-(2-azaspiro[3.3]hept-5-ylcarbamoyl)pyridazin-3-yl]-1,3-dihydro-2H-isoindole-2-carboxamide] | 2880
23 | O=C(NC1[C@H]2CNC[C@@H]12)c1ccc(NC(=O)N2Cc3ccccc3C2)nn1 (stereo partly drawn) [Example 26, N-{6-[(1R,5S)-3-azabicyclo[3.1.0]hex-6-ylcarbamoyl]pyridazin-3-yl}-1,3-dihydro-2H-isoindole-2-carboxamide] | 2890
24 | O=C(NC[C@H]1CC2CNCCN2C1)c1ccc(NC(=O)N2Cc3ccccc3C2)nn1 (stereo partly drawn) [Example 27, N-(6-{[(7R)-octahydropyrrolo[1,2-a]pyrazin-7-ylmethyl]carbamoyl}pyridazin-3-yl)-1,3-dihydro-2H-isoindole-2-carboxamide] | 602
25 | O=C(Nc1ccc(C(=O)N2CC3(CCCNC3)C2)nn1)N1Cc2ccccc2C1 [Example 28, N-[6-(2,6-diazaspiro[3.5]non-2-ylcarbonyl)pyridazin-3-yl]-1,3-dihydro-2H-isoindole-2-carboxamide] | 3150
26 | O=C(Nc1ccc(C(=O)N2CC3(CCNCC3)C2)nn1)N1Cc2ccccc2C1 [Example 29, N-[6-(2,7-diazaspiro[3.5]non-2-ylcarbonyl)pyridazin-3-yl]-1,3-dihydro-2H-isoindole-2-carboxamide] | 454
27 | O=C(Nc1ccc(C(=O)N2CCC3(CNC3)C2)nn1)N1Cc2ccccc2C1 [Example 30, N-[6-(2,6-diazaspiro[3.4]oct-6-ylcarbonyl)pyridazin-3-yl]-1,3-dihydro-2H-isoindole-2-carboxamide] | 7190
